These results are taken from patent publication US20200317716A1, “PREPARATION OF BILE ACIDS AND INTERMEDIATES THEREOF” (ALLERGAN SALES, LLC, priority 2008, published 2020).

One data set relates to Primary human adipocytes. The data set can be described thus: MTS cell viability assay on primary human adipocytes. It is filed as cell-based. As to conditions: 0.005%-0.1% bile acid in serum-free media, incubated for 1 hour at 37° C., MTS read at 490 nm, FIG. 1. The method, then: Primary human adipocytes were incubated with varying concentrations of synthetic sodium deoxycholate synthesized using 9-HAD as starting material or bovine-derived sodium deoxycholate obtained from Sigma as described below.
96 well plates (US Scientific cat # cellstar no. 655180) Serum-free RPMI medium (Mediatech cat #17-105-CV) Sodium deoxycholate (DC) (Sigma cat # D6750) Synthetic Sodium glycodeoxycholate (Kythera)
Adipocytes arrived differentiated and at a density of 13,000 cells per well in a 96 well plate. Two plates were received and each treated with the same samples. Cells were incubated for 24 hours at 37° C. with 5% CO2. A 1% stock solution of each bile acid (synthetic and non-synthetic DCA) were made by dissolving 20 mg into 2 mL media (serum-free). Using the 1% stock solution, the following 11 solutions were prepared by dilution: 0.005%, 0.01%, 0.015%, 0.02%, 0.025%, 0.03%, 0.035%, 0.04%, 0.05%, 0.06%, and 0.1%, as well as 0% (media only).
Cells were washed 2× with 150 μL of room temperature 1×PBS (phosphate buffered saline). Media and then PBS were removed from the wells in a 96 well plate by turning the plate upside down and decanting the liquid into a container. After the last PBS wash, 80 μL of sample was added per well. […]
Cell viability was assessed using a colorimetric assay (MTS) kit from Promega.

One may read the melting point as the temperature, or range, at which the solid turns liquid. Consider `C[C@]12CCC(=O)C[C@H]1CC[C@H]1[C@@H]3CCC(=O)[C@@]3(C)CC[C@@]12O`, for which the melting point was 213 to 216 °C.

`C/C=C1/CC[C@H]2[C@@H]3CC[C@@H]4C[C@H](O)CC[C@]4(C)C3=CC[C@]12C` displayed a melting point of 146 to 147.3 °C. `C/C=C1/CC[C@H]2[C@@H]3CC[C@@H]4C[C@H](OC(C)=O)CC[C@]4(C)C3=CC[C@]12C`: the melting point was in the range of 93.9 to 97.8 °C.

With `COC(=O)/C=C/[C@@H](C)C1=CC[C@H]2[C@@H]3CC[C@@H]4C[C@H](OC(C)=O)CC[C@]4(C)C3=CC[C@]12C`, the melting point was in the range of 114 to 116 °C. The same measure, in the same setting: with `COC(=O)CC[C@@H](C)[C@H]1CC[C@H]2[C@@H]3CC[C@@H]4C[C@H](OC(C)=O)CC[C@]4(C)C3=CC[C@]12C` the figure was 122.1 to 123.9 °C. `COC(=O)CC[C@@H](C)[C@H]1CC[C@H]2[C@@H]3CC[C@@H]4C[C@H](OC(C)=O)CC[C@]4(C)[C@H]3CC(=O)[C@]12C` yielded a melting point of 142.2 to 144.4 °C.

Compound `COC(=O)CC[C@@H](C)[C@H]1CC[C@H]2[C@@H]3CC[C@@H]4C[C@H](OC(C)=O)CC[C@]4(C)[C@H]3C[C@H](O)[C@]12C` had a melting point of 104.2 to 107.7 °C.

In the case of sodium deoxycholate [syn-NaDC], the cell survival entry in the data set with Primary human adipocytes is recorded as “dose-dependent decrease in cell survival”.
